Experiments:
[1] = tested on: B16-BL6 mouse melanoma cells; assay: In vitro cytotoxicity, MTT assay; type: cell-based
Method: In vitro cytotoxicity activity of PEO-b-P(CL-DOX) and DOX loaded PEO-b-P(CL-DOX) block copolymer micelles were investigated against B16-BL6 mouse melanoma cells using MTT assay. […] After this time, MTT solution (20 μL; 5 mg/ml in sterile-filtered PBS) was added to each well and the plates were reincubated for a further 3 h. The formazan crystals were dissolved in DMSO, and the concentration was read by a Power Wave×340 microplate reader (Bio-Tek Instruments, Inc. USA) at 550 nm.

rat red blood cells = assay: In vitro hemolysis against rat red blood cells; conditions: 0.1% triton-X 100, positive control
Method: Blood was freshly obtained from a Sprague-Dawley rat by cardiac puncture, mixed with sterile isotonic PBS and centrifuged at 3,000 rpm for 5 minutes. The supernatant were pipetted out and the red blood cells were diluted with isotonic sterile PBS (pH: 7.4). The proper dilution factor was estimated from the UV-Vis absorbance of hemoglobin at 576 nm in the supernatant after RBCs were lysed by 0.1% triton X 100. A properly diluted sample of RBCs gave an absorbance of 0.4 to 0.5. […] After incubation the samples were kept in ice bath to stop further hemolysis. The samples were centrifuged at 14,000 rpm for 30 sec to precipitate the intact RBC cells. The supernatant was separated and analyzed for hemoglobin by UV-Vis spectrophotometer at 576 nm. The percentage of hemolyzed RBC was calculated using the equation: % of hemolysis=100 (Abs−Abs0)/(Abs100-Abs0), where Abs, Abs0 and Abs100 are the absorbance for the sample, control with no polymer or DOX and control with 0.1% triton X 100, respectively.

Row | Molecule | times lower IC50 / higher cytotoxicity than PEO-b-P(CL-DOX) micelles ([1]; 24 h incubation) | times lower IC50 than PEO-b-P(CL-DOX) micelles ([1]; 48 h incubation) | hemolysis (rat red blood cells)
1 | COc1cccc2c1C(=O)c1c(O)c3c(c(O)c1C2=O)C[C@@](O)(C(=O)CO)C[C@@H]3O[C@H]1C[C@H](N)[C@H](O)[C@H](C)O1 [free DOX, doxorubicin] | 50 times | 15 times | –
2 | triton-X 100 | – | – | 100%
